Data set [1] relates to Mus musculus. Description: Antiinflammatory activity in carrageenan-induced Kunming mouse model of paw edema assessed as paw volume at 30 mg/kg, ip pretreated for 1 hr followed by carrageenan administration and measured after 3 hrs by digital plethysmometer (reference value: 0.377 +/- 0.018 mL). The data set is classed as functional. Conditions: time 4 hrs.
Data set [2] relates to Mus musculus. Description: Antiinflammatory activity in carrageenan-induced Kunming mouse model of paw edema assessed as paw volume at 1 mg/kg, ip pretreated for 1 hr followed by carrageenan administration and measured after 5 hrs by digital plethysmometer (reference value: 0.362 +/- 0.016 mL). The data set is classed as functional. Conditions: time 6 hrs.
The subject of data set [3] is Mus musculus. Description: Antiinflammatory activity in carrageenan-induced Kunming mouse model of paw edema assessed as edema inhibition at 1 mg/kg, ip pretreated for 1 hr followed by carrageenan administration and measured after 1 hr relative to control. The data set is classed as functional. Conditions: time 2 hrs.
In data set [4] the test system is Mus musculus. Description: Antiinflammatory activity in carrageenan-induced Kunming mouse model of paw edema assessed as paw volume at 10 mg/kg, ip pretreated for 1 hr followed by carrageenan administration and measured after 3 hrs by digital plethysmometer (reference value: 0.377 +/- 0.018 mL). Particulars: time 4 hrs. The data set is classed as functional.
The subject of data set [5] is Mus musculus. Description: Antiinflammatory activity in carrageenan-induced Kunming mouse model of paw edema assessed as paw volume at 30 mg/kg, IG pretreated for 1 hr followed by carrageenan administration and measured immediately by digital plethysmometer (reference value: 0.144 +/- 0.026 mL). The data set is classed as functional.
Data set [6] concerns Mus musculus. Description: Antioxidant activity in carrageenan-induced Kunming mouse model of paw edema assessed as increase in SOD activity in paw tissue at 1 to 30 mg/kg, ip pretreated for 1 hr followed by carrageenan administration and measured after 5 hrs by ELISA. Type of data set: functional, organism-based. Particulars: dose 1-30 mg/kg, time 6.0 hrs. Background: ELISA stands for enzyme-linked immunosorbent assay.

Data set [7] concerns Mus musculus. Description: Antiinflammatory activity in carrageenan-induced Kunming mouse model of paw edema assessed as edema inhibition at 30 mg/kg, IG pretreated for 1 hr followed by carrageenan administration and measured after 5 hrs relative to control. The data set is classed as functional. Particulars: po, time 6 hrs.
Data set [8] deals with RAW264.7. Description: Antiinflammatory activity in LPS-induced mouse RAW264.7 cells assessed as inhibition of NO production at 2 to 10 uM pretreated for 1 hr followed by LPS addition and measured after 24 hrs by griess reagent based assay. Type of data set: functional, cell-based. Conditions: dose 2-10 µM, time 25.0 hrs. A general note: Griess reagent forms a coloured azo dye with nitrite.

Data set [9] concerns Mus musculus. Description: Antiinflammatory activity in carrageenan-induced Kunming mouse model of paw edema assessed as paw volume at 30 mg/kg, ip pretreated for 1 hr followed by carrageenan administration and measured after 1 hr by digital plethysmometer (reference value: 0.395 +/- 0.017 mL). Type of data set: functional. Conditions: time 2 hrs.
For data set [10], the system named is RAW264.7. Description: Antioxidant activity in H2O2-stimulated mouse RAW264.7 cells assessed as protection against cell damage at 2 to 5 uM pretreated for 30 mins followed by H2O2 stimulation and measured after 4 hrs by MTT assay. Particulars: dose 2-5 µM, time 4.5 hrs. The data set is classed as functional, cell-based. (In general: Tetrazolium dyes change colour on reduction, which living cells bring about.)

For data set [11], the system named is Mus musculus. Description: Antiinflammatory activity in carrageenan-induced Kunming mouse model of paw edema assessed as paw volume at 30 mg/kg, ip pretreated for 1 hr followed by carrageenan administration and measured immediately by digital plethysmometer (reference value: 0.116 +/- 0.042 mL). Type of data set: functional.
The test system of data set [12] is Mus musculus. Description: Antiinflammatory activity in carrageenan-induced Kunming mouse model of paw edema assessed as edema inhibition at 10 mg/kg, ip pretreated for 1 hr followed by carrageenan administration and measured after 3 hrs relative to control. Type of data set: functional. Particulars: time 4 hrs.
Data set [13] relates to Mus musculus. Description: Antiinflammatory activity in carrageenan-induced Kunming mouse model of paw edema assessed as edema inhibition at 30 mg/kg, ip pretreated for 1 hr followed by carrageenan administration and measured after 1 hr relative to control. Type of data set: functional. Particulars: time 2 hrs.
Data set [14] in a line: Cytotoxicity against mouse RAW264.7 cells assessed as cell viability at 2 to 10 uM measured after 24 hrs. Particulars: dose 2-10 µM, read-out: Activity. The data set is classed as toxicity, cell-based.
Data set [15] has as its system RAW264.7. Description: Inhibition of NF-kappaB activation in LPS-induced mouse RAW264.7 cells assessed as inhibition of IkappaBalpha phosphorylation by measuring reduction in p-IkappaBalpha/IkappaBalpha expression at 0.5 to 2 uM by Western blot analysis. Conditions: dose 0.5-2 µM. The data set is classed as cell-based.
The test system of data set [16] is Mus musculus. Description: Antiinflammatory activity in carrageenan-induced Kunming mouse model of paw edema assessed as paw volume at 30 mg/kg, IG pretreated for 1 hr followed by carrageenan administration and measured after 5 hrs by digital plethysmometer (reference value: 0.353 +/- 0.024 mL). Conditions: time 6 hrs. The data set is classed as functional.
Data set [17] concerns RAW264.7. Description: Effect on p65 total protein expression in LPS-induced mouse RAW264.7 cells at 0.5 to 2 uM by Western blot analysis. The data set is classed as functional, cell-based. Conditions: dose 0.5-2 µM.
Data set [18] deals with Mus musculus. Description: Antiinflammatory activity in carrageenan-induced Kunming mouse model of paw edema assessed as paw volume at 1 mg/kg, ip pretreated for 1 hr followed by carrageenan administration and measured immediately by digital plethysmometer (reference value: 0.116 +/- 0.042 mL). Type of data set: functional.
Data set [19] deals with RAW264.7. Description: Antiinflammatory activity in LPS-induced mouse RAW264.7 cells assessed as reduction in TNF-alpha level incubated for 24 hrs by ELISA. The data set is classed as functional, cell-based.

Each structure is given as a SMILES string. Active and inactive are the calls of the source. The rule behind the calls is not given here. Where only a bound is given, the exact number is not on record here.

On to `O=C(/C=C/c1ccc(O)c(O)c1)NCCCN1CCc2cc(Cl)ccc21`, for which the Activity was 0.143 mL in data set [1]; 0.225 mL in data set [2]; 0.175 mL in data set [4]; 0.138 mL in [5]; 0.158 mL in [9]; 0.131 mL in [11]. For the same compound, the results for the Activity in data set [16], in data set [18] and in data set [19] were 0.227 mL, 0.131 mL and “Dose-Dependent Effect”, respectively. The inhibition in vivo (as a rule, the drop in the measured response relative to a control, in per cent) at 1 mg/kg in [3] is 27.6%. The outcome in data set [6], in data set [8] and in data set [10] was Active. Besides, the figures for the inhibition in vivo at 30 mg/kg in [7] and in data set [13] were 58.1% and 87.1%, respectively. In addition, the inhibition in vivo at 10 mg/kg in [12] was found to be 82.8%. The viability at 24 h, 10 µM in data set [14] was more than 85%. In addition, the inhibition entry in data set [15] is “Active”. Also, the result in data set [17] was inactive. The IC50 (commonly the concentration that gives 50% inhibition) in [19] (RAW264.7, 24 h) was found to be 1520 nM.

The values above are taken from ChEMBL document CHEMBL5537118, “Synthesis of cinnamoyl tethered indoline derivatives with anti-inflammatory and antioxidant activities” (Eur J Med Chem, 2024).
